Active and inactive are the calls of the source.
Columns and labels:
[1] = target: Major prion protein (Homo sapiens, UniProt P04156); type: functional, cell-based
[2] = cells
[3] = target: T1, Methionyl-tRNA synthetase, putative (Trypanosoma brucei brucei, UniProt Q38C91); type: functional, Trypanosoma brucei brucei strain 927/4 GUTat10.1
T1 sequence (Q38C91 whole entry): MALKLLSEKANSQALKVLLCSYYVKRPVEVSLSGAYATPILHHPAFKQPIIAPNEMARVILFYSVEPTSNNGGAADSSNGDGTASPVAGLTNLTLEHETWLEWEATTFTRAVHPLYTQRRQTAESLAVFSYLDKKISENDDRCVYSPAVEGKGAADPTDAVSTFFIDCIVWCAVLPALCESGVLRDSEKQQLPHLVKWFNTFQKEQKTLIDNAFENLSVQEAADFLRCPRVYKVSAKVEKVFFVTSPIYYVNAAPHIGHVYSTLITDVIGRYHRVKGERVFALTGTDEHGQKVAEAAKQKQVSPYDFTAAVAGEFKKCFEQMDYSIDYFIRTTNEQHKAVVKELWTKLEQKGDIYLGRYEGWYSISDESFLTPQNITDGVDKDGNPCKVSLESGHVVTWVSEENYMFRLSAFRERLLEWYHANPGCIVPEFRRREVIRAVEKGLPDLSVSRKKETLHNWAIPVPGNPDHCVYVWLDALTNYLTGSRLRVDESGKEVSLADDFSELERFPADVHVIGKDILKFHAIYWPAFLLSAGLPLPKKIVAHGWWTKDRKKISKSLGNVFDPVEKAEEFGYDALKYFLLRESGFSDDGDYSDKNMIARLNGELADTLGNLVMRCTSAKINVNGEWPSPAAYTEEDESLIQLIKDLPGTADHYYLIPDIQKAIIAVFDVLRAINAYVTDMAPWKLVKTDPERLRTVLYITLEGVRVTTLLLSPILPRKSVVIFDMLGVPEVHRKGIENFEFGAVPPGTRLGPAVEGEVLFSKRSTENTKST

[4] = Counterscreen for inhibitors of Trypanosoma brucei methionyl tRNA synthetase (MetRS): Luminescence-based cell-based high throughput dose response assay to identify compounds that are cytotoxic to Jurkat human T lymphocyte cells.; type: functional
[5] = target: T1, Methionyl-tRNA synthetase, putative; type: functional, Trypanosoma brucei brucei strain 927/4 GUTat10.1; remark: listed apart in the source
[6] = inhibitors of HIV Env-driven cell fusion, dose response, cherry-pick (AID 652057); type: functional, cell-based
[7] = CEM21 lymphoblast cell cytotoxicity, dose response, cytotoxicity control for viral fusion inhibitor project, CellTiter-Glo luminescence, cherry-picked (AID 652042); type: functional, cell-based;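 note: potency for signal decrease meaning cytotoxicity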
[8] = ZM109 Env clade C HIV-1 fusion inhibitors, dose response, HeLa effector, CEM target cells, luciferase, cherry-pick (AID 652058); type: functional, cell-based
[9] = off-target signal loss in HeLa-CEM21 co-culture – HeLa F-luc CTL cells, cherry-picked, counter-screen for HIV-1 Env fusion inhibitor project, dose response (AID 652040); type: functional, cell-based;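 note: potency for signal decrease marking cytotoxic or nonspecific inhibition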
[10] = inhibitors of clade B AD8 Env fusion, dose response, cell-based, cherry-pick (AID 652062); type: functional;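 note: luciferase signal from cell-cell fusion driven by HIV-1 clade B AD8 Env; potency is for inhibitors of fusion seen as a drop in luminescence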
[11] = test system: INS1; assay: beta cell apoptosis inhibitors, cytokine rescue, dose response, luminescence, retest (AID 449756); type: functional, cell-based; details: Rattus norvegicus;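 note: cell death triggered by IL-1 beta plus TNF-alpha plus IFN-gamma mixture; protective hits raise ATP signal compared with cytokine alone wells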
[12] = target: Cytochrome P450 2C9 (Homo sapiens, UniProt P11712)
Sequence of Cytochrome P450 2C9 (P11712 whole entry): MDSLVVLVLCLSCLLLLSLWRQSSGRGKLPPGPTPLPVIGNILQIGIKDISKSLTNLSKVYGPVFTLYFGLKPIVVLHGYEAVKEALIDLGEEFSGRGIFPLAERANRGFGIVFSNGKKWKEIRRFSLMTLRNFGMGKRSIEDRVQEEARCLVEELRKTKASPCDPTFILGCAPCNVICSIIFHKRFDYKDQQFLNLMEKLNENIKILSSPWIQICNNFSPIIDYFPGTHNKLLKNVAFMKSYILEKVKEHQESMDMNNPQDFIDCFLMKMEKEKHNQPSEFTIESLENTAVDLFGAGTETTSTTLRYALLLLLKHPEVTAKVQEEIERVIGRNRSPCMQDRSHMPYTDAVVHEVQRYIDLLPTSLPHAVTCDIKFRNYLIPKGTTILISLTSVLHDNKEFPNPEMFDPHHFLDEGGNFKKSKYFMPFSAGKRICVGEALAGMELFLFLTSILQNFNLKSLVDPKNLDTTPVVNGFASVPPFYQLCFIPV

[13] = target: T2, Protein RecA (Mycobacterium tuberculosis, UniProt P9WHJ3); assay: Fluorescence Cell-Free Homogeneous Dose Retest to Identify Inhibitors of RecA-Intein Splicing Activity. [Related pubchem assays (depositor defined):AID2097, AID2223, AID489010, AID492950]; type: functional
T2 sequence (P9WHJ3 whole entry): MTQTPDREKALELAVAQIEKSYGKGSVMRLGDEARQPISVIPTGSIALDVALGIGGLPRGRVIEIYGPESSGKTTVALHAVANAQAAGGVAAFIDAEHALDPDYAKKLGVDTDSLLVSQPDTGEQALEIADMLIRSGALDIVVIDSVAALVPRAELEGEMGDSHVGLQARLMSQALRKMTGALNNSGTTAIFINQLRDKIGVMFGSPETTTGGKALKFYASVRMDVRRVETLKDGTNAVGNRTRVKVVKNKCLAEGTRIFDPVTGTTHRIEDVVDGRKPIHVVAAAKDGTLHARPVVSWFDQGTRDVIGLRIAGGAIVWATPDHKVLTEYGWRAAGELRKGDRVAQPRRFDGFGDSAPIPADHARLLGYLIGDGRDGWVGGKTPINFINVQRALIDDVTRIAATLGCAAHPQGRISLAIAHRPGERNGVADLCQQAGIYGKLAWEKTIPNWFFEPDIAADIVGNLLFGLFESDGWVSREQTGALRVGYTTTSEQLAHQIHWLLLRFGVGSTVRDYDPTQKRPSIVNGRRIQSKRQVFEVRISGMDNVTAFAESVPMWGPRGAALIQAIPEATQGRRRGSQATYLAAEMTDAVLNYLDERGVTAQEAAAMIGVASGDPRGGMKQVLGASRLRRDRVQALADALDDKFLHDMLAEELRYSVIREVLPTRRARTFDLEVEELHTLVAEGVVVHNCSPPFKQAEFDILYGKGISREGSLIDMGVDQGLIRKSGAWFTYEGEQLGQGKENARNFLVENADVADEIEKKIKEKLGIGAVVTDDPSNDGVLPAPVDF

[14] = target: T3, Histone-lysine N-methyltransferase NSD2 (Homo sapiens, UniProt O96028); type: biochemical
T3 sequence (O96028 whole entry): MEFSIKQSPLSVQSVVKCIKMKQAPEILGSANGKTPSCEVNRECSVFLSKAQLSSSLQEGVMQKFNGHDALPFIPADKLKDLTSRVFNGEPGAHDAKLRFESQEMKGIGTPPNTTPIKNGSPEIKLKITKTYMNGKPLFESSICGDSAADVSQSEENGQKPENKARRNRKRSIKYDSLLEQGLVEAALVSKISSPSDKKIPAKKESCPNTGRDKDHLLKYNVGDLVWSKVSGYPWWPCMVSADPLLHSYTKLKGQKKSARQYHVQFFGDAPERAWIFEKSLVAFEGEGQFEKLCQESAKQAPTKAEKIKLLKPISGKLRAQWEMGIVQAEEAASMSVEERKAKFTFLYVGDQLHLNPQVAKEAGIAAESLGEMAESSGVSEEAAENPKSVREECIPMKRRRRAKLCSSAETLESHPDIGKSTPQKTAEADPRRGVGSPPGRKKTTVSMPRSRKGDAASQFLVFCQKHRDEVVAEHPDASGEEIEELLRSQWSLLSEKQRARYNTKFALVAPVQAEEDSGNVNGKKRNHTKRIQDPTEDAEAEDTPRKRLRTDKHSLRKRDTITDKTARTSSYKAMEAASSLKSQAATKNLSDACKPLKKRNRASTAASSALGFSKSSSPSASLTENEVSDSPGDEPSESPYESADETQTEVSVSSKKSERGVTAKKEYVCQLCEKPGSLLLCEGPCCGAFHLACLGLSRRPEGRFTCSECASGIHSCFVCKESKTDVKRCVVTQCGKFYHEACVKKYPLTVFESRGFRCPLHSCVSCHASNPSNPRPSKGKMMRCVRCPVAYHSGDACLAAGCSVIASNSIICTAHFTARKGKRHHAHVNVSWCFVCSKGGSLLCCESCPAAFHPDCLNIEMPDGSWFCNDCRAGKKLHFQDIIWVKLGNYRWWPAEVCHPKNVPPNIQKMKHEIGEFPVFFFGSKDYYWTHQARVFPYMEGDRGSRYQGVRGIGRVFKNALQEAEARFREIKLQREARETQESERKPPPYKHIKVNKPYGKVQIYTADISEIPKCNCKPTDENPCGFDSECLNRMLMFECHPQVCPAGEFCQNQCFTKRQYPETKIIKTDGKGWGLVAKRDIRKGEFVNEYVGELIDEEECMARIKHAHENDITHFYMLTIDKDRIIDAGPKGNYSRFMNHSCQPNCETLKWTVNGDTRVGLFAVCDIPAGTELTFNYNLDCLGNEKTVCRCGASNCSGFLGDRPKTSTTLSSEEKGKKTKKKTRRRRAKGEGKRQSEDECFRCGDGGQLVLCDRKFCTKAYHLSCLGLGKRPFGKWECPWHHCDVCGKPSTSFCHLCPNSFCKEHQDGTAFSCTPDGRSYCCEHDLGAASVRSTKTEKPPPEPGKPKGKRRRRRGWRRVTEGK

[15] = target: T4, Heat shock factor protein 1 (Mus musculus, UniProt P38532); assay: HSF1 potentiators in luciferase reporter cells, confirmation, cell-based, NIH3T3, luminescence, dose retest (AID 435004); type: functional;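 note: stress induced by proteasome inhibitor MG132 added 30 min after compound; luciferase reporter driven by HSF1 response element in NIH3T3 cells; actives raise luminescence as potentiators of the MG132 stress response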
T4 sequence (P38532 whole entry): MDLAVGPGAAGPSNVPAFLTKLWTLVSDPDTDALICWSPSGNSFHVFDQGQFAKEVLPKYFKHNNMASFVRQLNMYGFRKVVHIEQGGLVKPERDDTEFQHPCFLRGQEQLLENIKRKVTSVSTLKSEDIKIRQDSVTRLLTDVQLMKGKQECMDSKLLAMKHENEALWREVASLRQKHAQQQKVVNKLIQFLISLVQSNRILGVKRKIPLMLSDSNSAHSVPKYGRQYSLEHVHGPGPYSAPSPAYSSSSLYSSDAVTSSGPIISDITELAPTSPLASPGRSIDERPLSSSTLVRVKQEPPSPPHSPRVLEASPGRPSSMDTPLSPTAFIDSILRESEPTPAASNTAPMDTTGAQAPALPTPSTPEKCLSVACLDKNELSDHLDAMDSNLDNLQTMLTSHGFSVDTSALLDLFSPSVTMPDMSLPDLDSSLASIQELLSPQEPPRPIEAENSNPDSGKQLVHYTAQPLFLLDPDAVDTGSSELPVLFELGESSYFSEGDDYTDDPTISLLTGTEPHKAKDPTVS

[16] = target: T5, Oxysterols receptor LXR-beta (Homo sapiens, UniProt P55055); type: functional, cell-based;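 note: agonist activity at LXR measured by a cell-based luminescence readout across a dose range, run as a counterscreen for daf-12 agonists; HEK293 cells with Gal4-LXR fusion and GAL4-driven luciferase reporter; potency for activation of Gal4-LXR reporter so compounds are agonists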
T5 sequence (P55055 whole entry): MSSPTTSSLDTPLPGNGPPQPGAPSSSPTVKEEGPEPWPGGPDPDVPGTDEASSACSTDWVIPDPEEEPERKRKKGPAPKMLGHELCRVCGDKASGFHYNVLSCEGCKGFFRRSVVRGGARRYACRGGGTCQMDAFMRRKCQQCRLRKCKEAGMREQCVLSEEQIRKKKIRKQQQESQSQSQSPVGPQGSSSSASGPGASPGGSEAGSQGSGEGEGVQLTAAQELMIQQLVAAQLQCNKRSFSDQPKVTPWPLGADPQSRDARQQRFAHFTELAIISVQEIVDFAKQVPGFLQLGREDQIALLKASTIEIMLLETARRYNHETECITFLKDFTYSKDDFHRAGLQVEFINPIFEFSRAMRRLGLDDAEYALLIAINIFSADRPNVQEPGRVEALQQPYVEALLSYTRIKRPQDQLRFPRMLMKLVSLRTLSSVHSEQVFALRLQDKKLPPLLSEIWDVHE

[17] = A375 melanoma cell viability loss, dose response, counter-screen for MITF inhibitor project, CellTiter-Glo luminescence, dry powder, set 4 (AID 624364); type: functional, cell-based; details: A-375;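 note: A375 melanoma cells are MITF independent so this is a counter screen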
[18] = A375 melanoma cell cytotoxicity, dose response, counter-screen for MITF inhibitor project, CellTiter-Glo luminescence, dry powder, set 2 (AID 624489); type: functional, cell-based; details: A-375;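 note: actives are compounds lowering A375 viability meaning general cytotoxicity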

CC1(C)Cc2ccccc2-c2[nH]c(=S)[nH]c(=O)c21
IC50 [1]: 4.55 µM (active)

CC1(C)Cc2ccccc2-c2nc(S)nc(O)c21
IC50 [2]: > 138 µM (inactive)

Cc1[nH]c2ccccc2c1C(=O)C(=O)NCCc1ccc(S(N)(=O)=O)cc1
IC50 [3]: 14.8 µM (inactive)
IC50 [4]: 83.3 µM (inactive)
IC50 [5]: 6.63 µM (active)

CCOC(=O)CSc1nc(-c2ccccc2)nc2ccccc12
IC50 [1]: 1.73 µM (active)
IC50 [2]: > 138 µM (inactive)

CCNS(=O)(=O)c1ccc(CCC(=O)Nc2cc(Cl)ccc2Oc2ccccc2)cc1
AC50 [6]: 5.54 µM (active)
AC50 [7]: 40.5 µM (active)
AC50 [8]: 2.17 µM (active)
AC50 [9]: 12 µM (active)
AC50 [10]: 11.6 µM (active)

CCn1c(-c2ccc(C)cc2)nn(CC(=O)NCCc2ccccc2)c1=S
AC50 [11]: 5.9 µM (active)
AC50 [6]: 8.88 µM (active)
AC50 [7]: 51.1 µM (active)
AC50 [8]: 4.85 µM (active)
AC50 [9]: 7.04 µM (active)
AC50 [10]: 6.95 µM (active)

Clc1ccccc1-c1ccc2ncnc(NCc3cccnc3)c2c1
IC50 [3]: 14.1 µM (inactive)
IC50 [4]: 83.3 µM (inactive)
IC50 [5]: 17.1 µM (inactive)
AC50 [12]: 0.794 µM (inconclusive)

CC(=O)c1ccc(NC(=O)c2ccc(-n3cncn3)c([N+](=O)[O-])c2)cc1
IC50 [3]: 7.16 µM (active)
IC50 [4]: 83.3 µM (inactive)
IC50 [5]: 4.12 µM (active)

OCCN=C(S)Nc1ccc2nsnc2c1
EC50 [13]: 26 µM (active)
AC50 [14]: 10.5 µM (active)

Cc1ccc2oc(-c3cccc(N)c3)nc2c1
EC50 [15]: > 260 µM (inconclusive)
EC50 [16]: > 67.6 µM (inactive)

CCOC(=O)CSc1nc(COc2ccccc2)nc2ccccc12
IC50 [1]: 8.25 µM (active)
IC50 [2]: > 138 µM (inactive)

CCN(CC)CCCNC1=C(N(C)C(C)=O)C(=O)c2ccccc2C1=O
AC50 [17]: 5.33 µM (active)
AC50 [18]: 2.91 µM (active)

Cc1ccc(/C=N/NC(=O)c2ccoc2C)s1
EC50 [16]: > 67.6 µM (inactive)

CC(=O)NC1=C(c2ccc(Oc3ccccc3)cc2)C(=O)c2ccccc2C1=O
AC50 [17]: 59 µM (active)
AC50 [18]: 31.2 µM (active)
